Consider 3 compounds from article PMC9313475, “Green Tea Catechins, (−)‐Catechin Gallate, and (−)‐Gallocatechin Gallate are Potent Inhibitors of ABA‐Induced Stomatal Closure” (Advanced Science, 2022).

One experiment deals with T1, GORK (Arabidopsis thaliana, UniProt Q94A76).
T1 sequence (Q94A76 1-820): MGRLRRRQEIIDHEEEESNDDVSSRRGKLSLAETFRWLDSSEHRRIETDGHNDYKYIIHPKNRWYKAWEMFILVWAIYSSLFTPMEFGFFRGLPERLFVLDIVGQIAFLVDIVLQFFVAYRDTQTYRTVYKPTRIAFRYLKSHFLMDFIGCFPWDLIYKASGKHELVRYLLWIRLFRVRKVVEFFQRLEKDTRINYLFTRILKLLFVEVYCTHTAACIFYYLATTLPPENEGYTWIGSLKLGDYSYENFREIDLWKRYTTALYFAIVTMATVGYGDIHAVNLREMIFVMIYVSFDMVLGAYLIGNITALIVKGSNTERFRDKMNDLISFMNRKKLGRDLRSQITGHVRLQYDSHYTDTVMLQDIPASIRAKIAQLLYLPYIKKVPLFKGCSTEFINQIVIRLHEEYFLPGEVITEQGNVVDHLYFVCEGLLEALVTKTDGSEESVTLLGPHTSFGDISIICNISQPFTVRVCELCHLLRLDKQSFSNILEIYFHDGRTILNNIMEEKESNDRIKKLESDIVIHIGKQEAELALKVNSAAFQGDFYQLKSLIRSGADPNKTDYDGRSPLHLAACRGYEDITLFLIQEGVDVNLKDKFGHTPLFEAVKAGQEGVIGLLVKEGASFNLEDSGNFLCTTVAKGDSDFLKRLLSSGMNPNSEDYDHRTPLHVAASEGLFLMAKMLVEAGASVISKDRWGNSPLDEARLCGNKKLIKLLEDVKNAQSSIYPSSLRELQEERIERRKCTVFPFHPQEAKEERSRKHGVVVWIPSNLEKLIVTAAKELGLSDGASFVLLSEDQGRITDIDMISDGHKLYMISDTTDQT
Put plainly: two-electrode voltage clamp in Xenopus oocytes expressing the channel, […]. Type of experiment: cell-based. (Two-electrode voltage clamp is typically applied to oocytes expressing channels or transporters.)

Experiment [1] addresses T2, KAT2 (Arabidopsis thaliana, UniProt Q38849). The experiment is described as above. Type of experiment: cell-based.
The next experiment has as its target KAT1 (Arabidopsis thaliana, UniProt Q39128). The experiment is described as above. Type of experiment: cell-based.
Experiment [2] addresses T2, KAT2. Put plainly: cell-based. Conditions: read-out: % inhibition at 0.5 mM.

T2 sequence (Q38849 whole entry): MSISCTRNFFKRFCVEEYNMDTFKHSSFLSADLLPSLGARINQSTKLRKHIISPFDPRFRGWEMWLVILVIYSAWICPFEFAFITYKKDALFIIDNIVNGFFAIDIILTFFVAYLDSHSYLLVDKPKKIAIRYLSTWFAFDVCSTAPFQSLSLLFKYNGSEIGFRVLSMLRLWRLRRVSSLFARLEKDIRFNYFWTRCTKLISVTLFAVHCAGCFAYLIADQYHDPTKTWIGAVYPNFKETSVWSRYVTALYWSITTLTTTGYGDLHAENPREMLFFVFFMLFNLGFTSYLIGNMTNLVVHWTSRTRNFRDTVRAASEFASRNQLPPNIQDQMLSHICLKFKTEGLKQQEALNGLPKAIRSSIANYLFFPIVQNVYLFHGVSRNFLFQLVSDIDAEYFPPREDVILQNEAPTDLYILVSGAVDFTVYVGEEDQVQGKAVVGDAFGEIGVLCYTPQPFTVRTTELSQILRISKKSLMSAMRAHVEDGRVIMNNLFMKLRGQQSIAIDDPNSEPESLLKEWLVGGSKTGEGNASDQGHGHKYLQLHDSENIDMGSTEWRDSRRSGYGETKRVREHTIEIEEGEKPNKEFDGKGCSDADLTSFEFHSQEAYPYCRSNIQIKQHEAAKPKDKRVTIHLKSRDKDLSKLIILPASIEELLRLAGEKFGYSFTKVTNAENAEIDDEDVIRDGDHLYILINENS
Chain of KAT1 (Q39128 whole entry): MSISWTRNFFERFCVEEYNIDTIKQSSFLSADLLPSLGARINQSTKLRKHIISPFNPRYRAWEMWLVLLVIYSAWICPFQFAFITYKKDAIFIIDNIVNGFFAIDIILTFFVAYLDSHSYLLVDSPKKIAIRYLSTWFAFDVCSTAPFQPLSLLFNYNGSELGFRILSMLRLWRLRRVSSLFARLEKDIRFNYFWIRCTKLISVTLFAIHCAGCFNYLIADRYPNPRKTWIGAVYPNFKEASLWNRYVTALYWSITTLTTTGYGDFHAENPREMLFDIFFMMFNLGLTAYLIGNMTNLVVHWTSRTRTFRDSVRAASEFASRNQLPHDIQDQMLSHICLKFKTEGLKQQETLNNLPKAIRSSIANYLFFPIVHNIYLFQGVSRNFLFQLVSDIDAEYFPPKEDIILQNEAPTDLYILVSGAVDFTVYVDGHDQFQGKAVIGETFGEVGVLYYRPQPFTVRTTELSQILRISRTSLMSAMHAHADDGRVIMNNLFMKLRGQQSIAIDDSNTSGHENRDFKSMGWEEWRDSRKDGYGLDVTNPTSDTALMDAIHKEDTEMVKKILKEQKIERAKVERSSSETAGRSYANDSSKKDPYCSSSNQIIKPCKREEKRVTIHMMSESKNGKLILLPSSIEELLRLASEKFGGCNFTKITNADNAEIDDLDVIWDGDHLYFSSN

Turning to `O=C(O[C@@H]1Cc2c(O)cc(O)cc2O[C@H]1c1ccc(O)c(O)c1)c1cc(O)c(O)c(O)c1` [CG, (−)-catechin gallate], the “two-electrode voltage clamp in Xenopus oocytes expressing the channel, 500 μM” value on GORK was “GORK was strongly inhibited by CG and GCG, whereas AKT1 and AKT2 were less sensitive to CG and GCG”; on KAT2 [1] it was “Both CG and GCG inhibited KAT1 and KAT2 (Figure 3A,B)”; at KAT1, “Both CG and GCG inhibited KAT1 and KAT2 (Figure 3A,B)”.
As to `O=C(O[C@@H]1Cc2c(O)cc(O)cc2O[C@H]1c1cc(O)c(O)c(O)c1)c1cc(O)c(O)c(O)c1` [GCG, (−)-gallocatechin gallate], the “two-electrode voltage clamp in Xenopus oocytes expressing the channel, 500 μM” value is “GORK was strongly inhibited by CG and GCG, whereas AKT1 and AKT2 were less sensitive to CG and GCG” on GORK; “Both CG and GCG inhibited KAT1 and KAT2 (Figure 3A,B)” on KAT2 [1]; “Both CG and GCG inhibited KAT1 and KAT2 (Figure 3A,B)” on KAT1.
The inhibition is how much of the control response was suppressed. Turning to `CC[N+](CC)(CC)CC` [TEA, tetraethylammonium], on KAT2 [2], the inhibition at 500 µM was found to be 14%.
